Experimental data taken from US10434225B2, “Para-xylene films and therapeutic uses thereof” (NORTHWESTERN UNIVERSITY, priority 2013, dated 2019).

System: Interleukin-6 (IL-6)
Experiment: IL-6 gene expression by real-time PCR in macrophages on surfaces
Assay type: cell-based, murine
Conditions: RAW264.7 macrophages, LPS stimulated (+), DEX added to Control or integrated into PPX film
Procedure: In-vitro analysis and drug release was completed through deposition of PPX on varying culture plates. Surface treatment of prepared PPX culture plates either had plasma oxidation (Oxd) or lack thereof resulting in hydrophilic or hydrophobic surfaces (native form). RAW264.7 macrophages and NIH-3T3 fibroblasts were analyzed on varying surfaces to determine in-vitro response. Cells were kept in DMEM media supplemented with 10% FBS and 1% Pen/Strep in humidified atmosphere with 5% CO^2. Cellular analysis was completed through the application of time lapse bright field imaging in addition to multiple cellular assays examining viability (MTT, Roche Diagnostics), proliferation (CyQUANT, Life Technologies) and adhesion (Vybrant, Molecular Probes) onto polystyrene, representing baseline biocompatible control surfaces, and various PPX surfaces. RNA isolation was accomplished utilizing TRIzol reagent (Invitrogen Corporation, Carlsbad, Calif.) per the manufacturer's guidelines. cDNA was synthesized using the iScript Select cDNA Synthesis Kit (Quanta Biosciences, Gaithersburg, Md.). PCR was done using SYBER Green detection reagents (Quanta Biosciences, Gaithersburg, Md.) and appropriate primers for IL-6 and β-Actin (Integrated DNA Technologies, Coralville, Iowa). Samples were amplified using a MyiQ real-time PCR detection system (Bio-Rad).

C[C@@H]1C[C@H]2[C@@H]3CCC4=CC(=O)C=C[C@]4(C)[C@@]3(F)[C@@H](O)C[C@]2(C)[C@@]1(O)C(=O)CO [DEX, dexamethasone]
IL-6 expression, LPS stimulation (+) with DEX: 217.4±54.0
